± gives the expanded uncertainty stated by the source.
How the values were obtained:
[1] = Molar enthalpy of transition or fusion; conditions: Crystal; Adiabatic calorimetry
[2] = Crystal; DTA

| SMILES | Molar enthalpy of transition or fusion [1] | Normal melting temperature [2] |
| --- | --- | --- |
| COC(=O)C=Cc1ccc(O)cc1 [2-propenoic acid, 3-(4-hydroxyphenyl)-, methyl ester] | 7.22 ± 0.43 kcal/mol | 137.56 ± 1.1 °C |
| COC(=O)/C=C/c1cc(OC)c(O)c(OC)c1 [3,5-dimethoxy-4-hydroxy cinnamic acid methyl ester] | 7.14 ± 0.669 kcal/mol | 88.64 ± 1.2 °C |
| COC(=O)C=Cc1ccc(O)c(OC)c1 [methyl 3-(4-hydroxy-3-methoxyphenyl)-2-propenoate] | 6.17 ± 0.43 kcal/mol | 62.56 ± 0.95 °C |

Source: the NIST ThermoML archive (doi:10.1021/je9004382)
